In patent publication US20250195530A1, “POLQ INHIBITORS” (ASTRAZENECA AB, priority 2022, published 2025):
Like-named read-outs stand apart in the source and are kept apart here.

Assays:
DLD-1 cells = experiment: Inhibition of proliferation, DLD-1 BRCA2 wt control (Cell Titre Glo 3D); type: cell-based; conditions: Homo sapiens, DLD-1 BRCA2 wt control, read-out: POLQ PD Prolif Lumin (converted)
How it was run: (§1)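 Luminescent Cell Titre Glo 3D readout, taken on day 12 for homologous-recombination-deficient DLD-1 BRCA2−/− and day 7 for the wild-type control, after compound refresh on day 6. Compounds spanned 10 μM to 0.51 nM in three-fold steps; IC50 defined as 50% reduction of average maximum signal.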

DLD-1 BRCA2−/− cells = experiment: Homologous recombination synthetic lethal inhibition of proliferation, DLD-1 BRCA2-/- (Cell Titre Glo 3D); type: cell-based; conditions: Homo sapiens, DLD-1 BRCA2-/-, read-out: POLQ PD Prolif Lumin (converted)
How it was run: as §1

[1] = DLD-1, second proliferation column (c6)
[2] = DLD-1, first proliferation column (c5)
[3] = DLD-1, second proliferation column
[4] = DLD-1, first proliferation column

| Compound | IC50 (DLD-1 cells; [1]) [µM] | IC50 (DLD-1 cells; [3]) [µM] | IC50 (DLD-1 BRCA2−/− cells; [2]) [µM] | IC50 (DLD-1 BRCA2−/− cells; [4]) [µM] |
| --- | --- | --- | --- | --- |
| C[C@H]1CNCCN1CCOc1ccc(-c2nc3c(OC4(C)CC4)ncnc3n2Cc2cc(Cl)ccn2)c(Cl)c1 [Example T523, (S)-8-(2-chloro-4-(2-(2-methylpiperazin-1-yl)ethoxy)phenyl)-9-((4-chloropyridin-2-yl)methyl)-6-(1-methylcyclopropoxy)-9H-purine] | > 10 | – | 0.2 | – |
| Cc1cc(Cl)nc(Cn2c(-c3ccc(OCCN4CCNCC4)cc3Cl)nc3c(OC4(C)CC4)ncnc32)c1 [Example T524, 8-(2-chloro-4-(2-(piperazin-1-yl)ethoxy)phenyl)-9-((6-chloro-4-methylpyridin-2-yl)methyl)-6-(1-methylcyclopropoxy)-9H-purine] | > 10 | – | 0.501 | – |
| Cc1c(Cl)ccnc1Cn1c(-c2ccc(OCCN3CCNCC3)cc2Cl)nc2c(OC3(C)CC3)ncnc21 [Example T525, 9-((4-chloro-3-methylpyridin-2-yl)methyl)-8-(2-chloro-4-(2-(piperazin-1-yl)ethoxy)phenyl)-6-(1-methylcyclopropoxy)-9H-purine] | > 10 | – | 1.26 | – |
| Cc1cnc(Cn2c(-c3ccc(OCCN4CCNCC4)cc3Cl)nc3c(OC4(C)CC4)ncnc32)cc1Cl [Example T526, 8-(2-chloro-4-(2-(piperazin-1-yl)ethoxy)phenyl)-9-((4-chloro-5-methylpyridin-2-yl)methyl)-6-(1-methylcyclopropoxy)-9H-purine] | > 10 | – | 0.631 | – |
| Cc1cc(Cl)cc(Cn2c(-c3ccc(OCCN4CCNCC4)cc3Cl)nc3c(OC4(C)CC4)ncnc32)n1 [Example T527, 8-(2-chloro-4-(2-(piperazin-1-yl)ethoxy)phenyl)-9-((4-chloro-6-methylpyridin-2-yl)methyl)-6-(1-methylcyclopropoxy)-9H-purine] | > 6.31 | – | 0.398 | – |
| Cc1cc(OCCN2CCNCC2)ccc1-c1nc2c(OC3(C)CC3)ncnc2n1Cc1cc(Cl)ccn1 [Example T529, 9-((4-chloropyridin-2-yl)methyl)-8-(2-methyl-4-(2-(piperazin-1-yl)ethoxy)phenyl)-6-(1-methylcyclopropoxy)-9H-purine] | > 10 | – | 0.631 | – |
| Cc1cncc(Cn2c(-c3ccc(OCCN4CCNCC4)cc3Cl)nc3c(OC4(C)CC4)ncnc32)c1 [Example T530, 8-(2-chloro-4-(2-(piperazin-1-yl)ethoxy)phenyl)-6-(1-methylcyclopropoxy)-9-((5-methylpyridin-3-yl)methyl)-9H-purine] | > 10 | – | 1 | – |
| Cc1cc(Cn2c(-c3ccc(OCCN4CCNCC4)cc3Cl)nc3c(OC4(C)CC4)ncnc32)ccn1 [Example T531, 8-(2-chloro-4-(2-(piperazin-1-yl)ethoxy)phenyl)-6-(1-methylcyclopropoxy)-9-((2-methylpyridin-4-yl)methyl)-9H-purine] | > 10 | – | 6.31 | – |
| COc1ccc(Cn2c(-c3ccc(OCCN4CCNCC4)cc3Cl)nc3c(OC4(C)CC4)ncnc32)nc1 [Example T532, 8-(2-chloro-4-(2-(piperazin-1-yl)ethoxy)phenyl)-9-((5-methoxypyridin-2-yl)methyl)-6-(1-methylcyclopropoxy)-9H-purine] | > 10 | – | 6.31 | – |
| Cc1ccnc(Cn2c(-c3ccc(CC(=O)N4C[C@H]5C[C@@H](C4)O5)cc3Cl)nc3c(OC4(C)CC4)ncnc32)c1 [Example T547, rel-1-((1R,5S)-6-oxa-3-azabicyclo[3.1.1]heptan-3-yl)-2-(3-chloro-4-(6-(1-methylcyclopropoxy)-9-((4-methylpyridin-2-yl)methyl)-9H-purin-8-yl)phenyl)ethan-1-one] | > 10 | – | 0.501 | – |
| CC1(Oc2ncnc3c2nc(-c2ccc(OCCN4CCC[C@H]4C(=O)O)cc2Cl)n3Cc2cccc(Cl)c2)CC1 [Example T551, (2-(3-chloro-4-(9-(3-chlorobenzyl)-6-(1-methylcyclopropoxy)-9H-purin-8-yl)phenoxy)ethyl)-L-proline] | > 10 | – | 0.316 | – |
| CC1(Oc2ncnc3c2nc(-c2ccc(OCCCN4CC[C@@H](O)C4)cc2Cl)n3Cc2cc(C(F)(F)F)ccn2)CC1 [Example T554, (R)-1-(3-(3-chloro-4-(6-(1-methylcyclopropoxy)-9-((4-(trifluoromethyl)pyridin-2-yl)methyl)-9H-purin-8-yl)phenoxy)propyl)pyrrolidin-3-ol] | > 10 | – | 0.316 | – |
| Cc1ccnc(Cn2c(-c3ccc(CC(=O)N4CC5CC(C4)N5)cc3Cl)nc3c(OC4(C)CC4)ncnc32)c1 [Example T555, 1-(3,6-diazabicyclo[3.1.1]heptan-3-yl)-2-(3-chloro-4-(6-(1-methylcyclopropoxy)-9-((4-methylpyridin-2-yl)methyl)-9H-purin-8-yl)phenyl)ethan-1-one] | > 10 | – | > 7.94 | – |
| CC1(Oc2ncnc3c2nc(-c2ccc(OCCCCCCC(=O)O)cc2Cl)n3Cc2cccc(Cl)c2)CC1 [Example T561, 7-(3-chloro-4-(9-(3-chlorobenzyl)-6-(1-methylcyclopropoxy)-9H-purin-8-yl)phenoxy)heptanoic acid] | > 10 | – | 0.0398 | – |
| CC1(Oc2ncnc3c2nc(-c2ccc(OCCCC(C)(C)C(=O)O)cc2Cl)n3Cc2cccc(Cl)c2)CC1 [Example T563, 5-(3-chloro-4-(9-(3-chlorobenzyl)-6-(1-methylcyclopropoxy)-9H-purin-8-yl)phenoxy)-2,2-dimethylpentanoic acid] | 10 | – | 0.2 | – |

Now from value to molecule, other results behind:

| IC50 (DLD-1 cells; [1]) [µM] | IC50 (DLD-1 cells; [3]) [µM] | Compound | IC50 (DLD-1 BRCA2−/− cells; [2]) [µM] | IC50 (DLD-1 BRCA2−/− cells; [4]) [µM] |
| --- | --- | --- | --- | --- |
| > 10 | – | Cc1ccnc(Cn2c(-c3ccc(OCCCN4CC(O)C4)cc3Cl)nc3c(OC4(C)CC4)ncnc32)c1 [Example T513, 1-(3-(3-chloro-4-(6-(1-methylcyclopropoxy)-9-((4-methylpyridin-2-yl)methyl)-9H-purin-8-yl)phenoxy)propyl)azetidin-3-ol] | 0.316 | – |
| > 10 | – | Cc1ccnc(Cn2c(-c3cccc(OCCCN4CC(O)C4)c3Cl)nc3c(OC4(C)CC4)ncnc32)c1 [Example T514, 1-(3-(2-chloro-3-(6-(1-methylcyclopropoxy)-9-((4-methylpyridin-2-yl)methyl)-9H-purin-8-yl)phenoxy)propyl)azetidin-3-ol] | 0.398 | – |
| 7.94 | – | Cc1ccnc(Cn2c(-c3ccc(CCN4CCNCC4)cc3Cl)nc3c(OC4(C)CC4)ncnc32)c1 [Example T528, 8-(2-chloro-4-(2-(piperazin-1-yl)ethyl)phenyl)-6-(1-methylcyclopropoxy)-9-((4-methylpyridin-2-yl)methyl)-9H-purine] | 0.398 | – |
| > 10 | – | Cc1ccnc(Cn2c(-c3ccc(CC(=O)N4C[C@@H]5C[C@H]4CN5)cc3Cl)nc3c(OC4(C)CC4)ncnc32)c1 [Example T559, 1-((1S,4S)-2,5-diazabicyclo[2.2.1]heptan-2-yl)-2-(3-chloro-4-(6-(1-methylcyclopropoxy)-9-((4-methylpyridin-2-yl)methyl)-9H-purin-8-yl)phenyl)ethan-1-one] | > 6.31 | – |
| > 10 | – | CC1(Oc2ncnc3c2nc(-c2ccc(OCCCN4CC[C@@H](O)C4)cc2Cl)n3Cc2cc(C(F)F)ccn2)CC1 [Example T568, (R)-1-(3-(3-chloro-4-(9-((4-(difluoromethyl)pyridin-2-yl)methyl)-6-(1-methylcyclopropoxy)-9H-purin-8-yl)phenoxy)propyl)pyrrolidin-3-ol] | 0.794 | – |
| – | > 10 | Cc1ccnc(Cn2c(-c3ccc(CC(=O)N4CCC(O)CC4)cc3Cl)nc3c(OC4(C)CC4)ncnc32)c1 [Example T574, 2-(3-chloro-4-(6-(1-methylcyclopropoxy)-9-((4-methylpyridin-2-yl)methyl)-9H-purin-8-yl)phenyl)-1-(4-hydroxypiperidin-1-yl)ethan-1-one] | – | 1 |
| – | > 10 | Cc1ccnc(Cn2c(-c3ccc(OCCN4CC5(CCN5)C4)cc3Cl)nc3c(OC4(C)CC4)ncnc32)c1 [Example T587, 8-(4-(2-(1,6-diazaspiro[3.3]heptan-6-yl)ethoxy)-2-chlorophenyl)-6-(1-methylcyclopropoxy)-9-((4-methylpyridin-2-yl)methyl)-9H-purine] | – | 1 |
| – | > 10 | Cc1ccnc(Cn2c(-c3ccc(C(=O)N4CC[C@H](N(C)C)C4)cc3Cl)nc3c(OC4(C)CC4)ncnc32)c1 [Example T588, (S)-(3-chloro-4-(6-(1-methylcyclopropoxy)-9-((4-methylpyridin-2-yl)methyl)-9H-purin-8-yl)phenyl)(3-(dimethylamino)pyrrolidin-1-yl)methanone] | – | 1.26 |
| – | > 10 | Cc1ccnc(Cn2c(-c3ccc(CC(=O)N4CCCNCC4)cc3Cl)nc3c(OC4(C)CC4)ncnc32)c1 [Example T589, 2-(3-chloro-4-(6-(1-methylcyclopropoxy)-9-((4-methylpyridin-2-yl)methyl)-9H-purin-8-yl)phenyl)-1-(1,4-diazepan-1-yl)ethan-1-one] | – | 1.58 |
| – | > 10 | Cc1ccnc(Cn2c(-c3ccc(OCCCN4CCCC4)cc3Cl)nc3c(OC4(C)CC4)ncnc32)c1 [Example T590, 8-(2-chloro-4-(3-(pyrrolidin-1-yl)propoxy)phenyl)-6-(1-methylcyclopropoxy)-9-((4-methylpyridin-2-yl)methyl)-9H-purine] | – | 0.251 |
| – | > 10 | Cc1ccnc(Cn2c(-c3ccc(CCN4CCC(O)CC4)cc3Cl)nc3c(OC4(C)CC4)ncnc32)c1 [Example T591, 1-(3-chloro-4-(6-(1-methylcyclopropoxy)-9-((4-methylpyridin-2-yl)methyl)-9H-purin-8-yl)phenethyl)piperidin-4-ol] | – | 0.316 |
